Columns and labels:
[1] = system: SK-MEL-28; test: Dopaquinone content determination (OD475) in SK-MEL cells; assay type: cell-based, human
Procedure: In vitro determinations were performed following the method devised by Dooley et al. (Skin Pharmacol. 1994; 7:188-200) in order to evaluate the capacity of idebenone to inhibit melanogenesis, according to the process described below:
Cells: The study was carried out using a cell line derived from human melanoma, provided by ABAC (Asociación Banco Argentino de Células—Cell Bank of Argentina), with melanin synthesis capability (SK-MEL-28, ATCC origin). The cells were grown in plastic culture bottles or in 24-well plastic dishes in a modified Eagle medium (DMEM) supplemented with 10% fetal bovine serum (FBS) and were maintained at 37° C. in a 5% CO2 atmosphere.
Study of in vitro compounds: SK-MEL cells detached with trypsin were seeded on plastic 24-well dishes (density of 1×10^5 cells per well) and incubated for 24 hours in modified Eagle medium (DMEM) supplemented with 10% fetal bovine serum (FBS) prior to treating with the compound to be evaluated. After 24 hours have lapsed, the medium was replaced with 990 μl of fresh medium. 10 μl of sterile vehicle (50% propylene glycol, 30% ethanol and 20% distilled water) containing different concentrations of the compounds to be evaluated were added to this fresh medium.
Decimal dilutions of each compound in the sterile vehicle were prepared in order to obtain final concentrations of the compound to be studied ranging between 1.000 and 0.01 μg/ml. […]
[…] […] All the concentrations of the compounds were studied in triplicate, comparing the mean of the 3 wells treated with the compounds with those treated with the vehicle alone.
Melanin content determination: The SK-MEL cell melanin content was determined after stirring the culture medium and washing the cells with PBS. The cells were then lysated by means of adding 1 ml of 1N NaOH to each well and repeated manual pipetting. The raw cell extract was analyzed using a spectrophotometer at 400 and 475 nm to determine the melanin and dopaquinone content, respectively. The results were expressed as a percentage of the cell cultures treated with the vehicle.

[2] = Arzneim. Forsch/drug res. 35 (II), 11, pp. 1704, 1985; cited from earlier work
[3] = Idebenone dosing in skin cuts by gas chromatography (penetration); assay type: in vivo, mice; settings: mouse skin, topical cream
Procedure: Creams containing 5% and 2.5% w/w idebenone (IDB) in a neutral phase were prepared. Said creams and a cream having an identical formulation but without idebenone were applied on nude adult mice with 3 months of age. The cream with idebenone was applied on the right half of the body of the animals and the control cream on the left half according to the scheme detailed below. The animals were sacrificed 1, 2, 3 or 4 hours after applying the cream (p.a.). • Batch A: animal treated with 5% IDB (1 hour p.a.) • Batch B: animal treated with 2.5% IDB (1 hour p.a.) • Batch C: animal treated with 5% IDB (2 hours p.a.) • Batch D: animal treated with 2.5% IDB (2 hours p.a.) • Batch E: animal treated with 5% IDB (3 hours p.a.) • Batch F: animal treated with 2.5% IDB (3 hours p.a.) • Batch G: animal treated with 5% IDB (4 hours p.a.) • Batch H: animal treated with 2.5% IDB (4 hours p.a.) […]
Idebenone dosing by gas chromatography: The treated and control skin sections were placed epidermis side down on a cryostat stage and 300 micron thick sections parallel to the surface were obtained in such a manner so as to obtain a deep cut, a surface cut and a medium cut. […] Each extract was analyzed by gas chromatography using a Hewlett Packard 5890 gas chromatograph, using a capillary column with methyl silicone as stationary phase (HP-IMS, 25 m×0.2 mm, 0.33μ thick film). […]

[4] = system: SK-MEL-28; test: Cytopathic effects on cell cultures, inverted microscope; assay type: cell-based, human
Procedure: An experiment similar to the one described in the previous example was designed for the purpose of establishing whether idebenone inhibits melanogenesis in cells in culture, but in this case the cells were treated for only 1 day, whereas the results were evaluated on the third day.
An experiment similar to the one described in the previous example was designed for the purpose of establishing whether idebenone inhibits melanogenesis in cells in culture, but in this case the cells were treated for 2 days and the results were evaluated on the fourth day.
An experiment similar to the one described in the previous example was designed for the purpose of establishing whether idebenone inhibits melanogenesis in cells in culture, but in this case the cells were treated for 5 days and the results were evaluated on the fifth day.

[5] = Example 9 (similar to Example 6), dilution −2
[6] = Example 9 (similar to Example 6), dilution −3
[7] = Example 9 (similar to Example 6), dilution −4
[8] = Example 9 (similar to Example 6), dilution −5
[9] = Example 9 (similar to Example 6), dilution −6
[10] = Example 9 (similar to Example 6), dilution −7
[11] = Example 9 (similar to Example 6), dilution −8
[12] = dilution −1, treated daily 3 days, assayed day 5
[13] = dilution −2, treated 1 day, evaluated third day
[14] = dilution −2, treated daily 3 days, assayed day 5
[15] = dilution −3, treated 1 day, evaluated third day
[16] = dilution −3, treated daily 3 days, assayed day 5
[17] = dilution −4, treated 1 day, evaluated third day
[18] = dilution −4, treated 2 days, evaluated fourth day
[19] = dilution −4, treated daily 3 days, assayed day 5
[20] = dilution −4, treated for 5 days (heading: 3 days), evaluated fifth day
[21] = dilution −5, treated 1 day, evaluated third day
[22] = dilution −5, treated 2 days, evaluated fourth day
[23] = dilution −5, treated daily 3 days, assayed day 5
[24] = dilution −5, treated for 5 days (heading: 3 days), evaluated fifth day
[25] = dilution −6, treated 1 day, evaluated third day
[26] = dilution −6, treated 2 days, evaluated fourth day
[27] = dilution −6, treated for 5 days (heading: 3 days), evaluated fifth day

Compound: COC1=C(OC)C(=O)C(CCCCCCCCCCO)=C(C)C1=O [idebenone, 6-(10-hydroxydecyl)-2,3-dimethoxy-5-methyl-1,4-benzoquinone]
- OD475 (dopaquinone) [1, 5]: 0.0024
- OD475 Percentage (dopaquinone) [1, 5]: 14.45%
- OD475 (dopaquinone) [1, 6]: 0.0038
- OD475 Percentage (dopaquinone) [1, 6]: 22.89%
- OD475 (dopaquinone) [1, 7]: 0.0133
- OD475 Percentage (dopaquinone) [1, 7]: 80.12%
- OD475 (dopaquinone) [1, 8]: 0.0139
- OD475 Percentage (dopaquinone) [1, 8]: 83.73%
- OD475 (dopaquinone) [1, 9]: 0.0116
- OD475 Percentage (dopaquinone) [1, 9]: 69.87%
- OD475 (dopaquinone) [1, 10]: 0.0139
- OD475 Percentage (dopaquinone) [1, 10]: 83.73%
- OD475 (dopaquinone) [1, 11]: 0.0133
- OD475 Percentage (dopaquinone) [1, 11]: 80.12%
- OD475 (dopaquinone) [1, 12]: 0.0011
- OD475 expressed as percentage of control (dopaquinone) [1, 12]: 9%
- OD475 (dopaquinone) [1, 13]: 0.0030
- OD475 Percentage (dopaquinone) [1, 13]: 18.75%
- OD475 (dopaquinone) [1, 14]: 0.0016
- OD475 expressed as percentage of control (dopaquinone) [1, 14]: 14%
- OD475 (dopaquinone) [1, 15]: 0.0050
- OD475 Percentage (dopaquinone) [1, 15]: 31.25%
- OD475 (dopaquinone) [1, 16]: 0.0043
- OD475 expressed as percentage of control (dopaquinone) [1, 16]: 37%
- OD475 (dopaquinone) [1, 17]: 0.0123
- OD475 Percentage (dopaquinone) [1, 17]: 76.87%
- OD475 (dopaquinone) [1, 18]: 0.0400
- OD475 Percentage (dopaquinone) [1, 18]: 103.62%
- OD475 (dopaquinone) [1, 19]: 0.0053
- OD475 expressed as percentage of control (dopaquinone) [1, 19]: 46%
- OD475 (dopaquinone) [1, 20]: 0.0513
- OD475 Percentage (dopaquinone) [1, 20]: 80.66%
- OD475 (dopaquinone) [1, 21]: 0.0196
- OD475 Percentage (dopaquinone) [1, 21]: 122.5%
- OD475 (dopaquinone) [1, 22]: 0.0406
- OD475 Percentage (dopaquinone) [1, 22]: 105.18%
- OD475 (dopaquinone) [1, 23]: 0.0040
- OD475 expressed as percentage of control (dopaquinone) [1, 23]: 35%
- OD475 (dopaquinone) [1, 24]: 0.0612
- OD475 Percentage (dopaquinone) [1, 24]: 96.22%
- OD475 (dopaquinone) [1, 25]: 0.0200
- OD475 Percentage (dopaquinone) [1, 25]: 125.0%
- OD475 (dopaquinone) [1, 26]: 0.0273
- OD475 Percentage (dopaquinone) [1, 26]: 70.72%
- OD475 (dopaquinone) [1, 27]: 0.0643
- OD475 Percentage (dopaquinone) [1, 27]: 101.10%
- Toxic effects reported [2]: no significant toxic effects have been reported
- Penetration of IDB in the skin [3]: penetrates the skin and is retained up to two hours after its application in the most superficial sections
- Cytopathic effects ([4]; remaining dilutions (−2 to −6), treated 1 day): no cytopathic effect whatsoever
- Cytopathic effects ([4]; −1 dilution, treated 1 day): cytopathic effects
- Cytopathic effects ([4]; −4, −5 and −6 dilutions, Example 8): No cytopathic effect was observed
- Cytopathic effects ([4]; −4, −5 and −6 dilutions, treated 2 days): No cytopathic effect was observed

From patent publication US20090060851A1, “USE OF IDEBENONE FOR THE PREPARATION OF A TOPICALLY-APPLIED DEPIGMENTATION COMPOSITION AND CORRESPONDING COMPOSITION” (priority 2005, published 2009)
